Data set [1] is described as follows: MTT cytotoxicity assay, RAFLS. In kind it is cell-based. The following applies: human. The text has this:
Data were obtained from triplication independent experiments.

The nature of a further data set: in vitro. The following applies: human.
For data set [2], the system named is adjuvant-induced arthritis (AIA) rat model. Description: Adjuvant-induced arthritis (AIA) rat model. The note with it: AIA rats; for microCT of hind joints: swollen joints and cartilage destruction: left hind paw.
Data set [3] has as its system RAFLS p-gp over expression. Description: MTT cytotoxicity assay, RAFLS overexpressed with P-gp. The note with it: RAFLS p-gp over expression vs RAFLS. A general note: Tetrazolium dyes change colour on reduction, which living cells bring about.
Description: (§5) All test compounds were dissolved in DMSO at final concentrations of 50 mmol/L and stored at −20° C. before use. Cytotoxicity was assessed using the 3-(4, 5-dimethylthiazol-2-yl)-2, 5-diphenyltetrazolium bromide (MTT) (5.0 mg/ml) assay. Briefly, 4×10^3 RAFLS cells overexpressed with P-gp were seeded per well in 96-well plates before drug treatment. […] Cells without drug treatment were used as control. Subsequently, MTT (10 μL) was added to each well and incubated at 37° C. for 4 hours followed by the addition of 100 μL solubilization buffer (10% SDS in 0.01 mol/L HCl) and overnight incubation. A570 nm was determined from each well on the next day. The percentage of cell viability was calculated using the following formula: Cell viability (%)=Atreated/Acontrol×100. Data were obtained from triplication independent experiments.
The subject of data set [4] is RASFs. Description: LC3 conversion Western blot in RASFs. In kind it is cell-based, human. The note with it: 2 μM celastrol, 10 μM BAPTA/AM. The method, then:
In a detection of autophagic marker protein LC3 conversion, after celastrol treatments with or without the calcium chelator, BAPTA/AM (BM), RASFs were harvested and lysed in RIPA buffer (Cell Signaling Technologies Inc. (Beverly, Mass.). The cell lysates were then resolved by SDS-PAGE. After electrophoresis, the proteins from SDS-PAGE were transferred to nitrocellulose membrane which was then blocked with 5% non-fat dried milk for 60 minutes. The membrane was then incubated with LC3 primary antibodies (1:1000) in TBST overnight at 4° C. After that, the membrane was further incubated with HRP-conjugated secondary antibodies for 60 minutes. Finally, protein bands were visualized by using the ECL Western Blotting Detection Reagents (Invitrogen, Paisley, Scotland, UK).
On the technique in general: Immunoblotting shows a protein as a band on a membrane.

In data set [5] the test system is RAFLS. Description: Annexin V flow cytometry cell death in RAFLS. In kind it is cell-based. The note with it: 24 h; for celastrol-mediated autophagic cell death with inhibitor: 2 μM celastrol with 5 mM 3-MA or 5 μM BAPTA/AM. The method, then:
(§1) Annexin V flow cytometry analysis was applied. Cell death and viability are measured using an Annexin V staining kit (BD Biosciences, San Jose, Calif., USA). Briefly, RAFLS are treated with 0-2 μM celastrol for 24 h. Cells are then harvested and analysed by multiparametric flow cytometry using FITC-Annexin V and Propidium iodide staining (BD Biosciences, San Jose, Calif., USA) according to the manufacturer's instructions. Flow cytometry is then carried out using a FACSCalibur flow cytometer (BD Biosciences, San Jose, Calif., USA). Data acquisition and analysis is performed with CellQuest (BD Biosciences, San Jose, Calif., USA). Data are obtained from three independent experiments.
as §1, with “performed.” for “applied.”, “1 or 2” for “0-2”, “celastrol in the presence or absence of autophagic inhibitor, 3-MA or calcium chelator, BAPTA/AM (BM)” for “celastrol”
A general note: A flow cytometer gives signals particle by particle.

Data set [6] relates to RAFLS. Description: Endogenous LC3-II puncta (autophagy) in RAFLS. In kind it is cell-based, human. The note with it: 24 h. The method, then: RAFLS were treated with DMSO as a control group or celastrol at a concentration of 0.25, 0.5, 1 or 2 μM for 24 h.
(§2) Data from the bar chart represented the mean values±S.D. of three independent experiments; error bars, S.D. ***, P<0.001.
(§3) In order to determine endogenous expression of LC3-II, RASFs or RAFLS treated with indicated time and concentrations of celastrol (Cel) were fixed and visualised by fluorescence microscopy after staining with an LC3-II antibody followed by TRITC-conjugated anti-mouse secondary antibody.
To determine the endogenous expression of LC3-II, RAFLS were treated with indicated concentrations of celastrol in the presence or absence of BAPTA/AM (BM) for 24 h. The cells were then fixed and visualised by fluorescence microscopy after staining with an LC3-II antibody followed by TRITC-conjugated anti-mouse secondary antibody.

Data set [7] relates to RASFs. Description: Cytosolic Ca2+ dynamic, FLIPR Calcium 6 Assay Kit in RASFs. In kind it is cell-based, human. The note with it: for celastrol-induced calcium dynamic change under co-/pre-treatment: 1 μM celastrol with 5 μM Compound C or 1 μM thapsigargin; for calcium dynamic change: 1 μM, compound alone. The method, then: Intracellular cytosolic Ca^2+ dynamic was measured using the FLIPR Calcium 6 Assay Kit (Molecular Devices) according to the manufacturer's instructions. In brief, RASFs were plated at a density of 10000 cells per well in black wall/clear bottom 96-multiwell plates from Costar (Tewksbury, Mass., USA) and cultured for 24 h before treatment. After that, calcium 6 reagent was added directly to cells, and cells were incubated for an additional 2 h at 37° C. and 5% CO2. Indicated concentrations of celastrol or thapsigargin were then added to the wells and immediately subjected to data acquisition on the SpectraMax Paradigm Multi-Mode Microplate Reader (Molecular Devices) at room temperature using a 1-s reading interval throughout the experiments.

The test system of data set [8] is RASFs. Description: Endogenous LC3-II puncta (autophagy) in RASFs. In kind it is cell-based, human. The note with it: 1 μM, 10-240 min. The method, then: RASFs were treated with DMSO as a control group or 1 μM celastrol for 10, 30, 60 or 240 min. The cells were then fixed and visualized for endogenous LC3-II expression by fluorescence microscopy using LC3-II antibody plus TRITC-conjugated anti-mouse secondary antibody.
as §2, §3

The next data set concerns the target T1, P-gp ATPase (Homo sapiens, UniProt P08183).
T1 construct: purchased Promega, Madison, Wis
Description: Pgp-Glo assay of P-gp ATPase activity. In kind it is biochemical. The following applies: celastrol 0.5, 1, 2 μM with 200 μM verapamil and ATP, 1 hour, 37° C. The procedure:
The luminescence was then measured by P-gp Glo™ Assay System. Change in luminescence (RLU) represented the activity of P-gp, whereas the activity shown in the control group indicated the basal P-gp ATPase activity.
The luminescence of the sample reflects the ATP level in the sample, which is negatively correlated with the activity of P-gp ATPase and was recorded using the SpectraMax Paradigm Multi-Mode Microplate Reader (Molecular Devices). DMSO-treated activities are expressed as the percentage of basal activity. By comparing basal activity to test compound-treated activities, the compounds can be ranked as stimulating, inhibiting, or having no effect on basal P-gp ATPase activity.

The next data set has as its system P-gp. Description: Rho123 exclusion assay in P-gp overexpressing RAFLS. The class given is cell-based, human. The note with it: relatively low doses of celastrol. The procedure: At the end of the incubation, the accumulation of Rho123 was stopped by washing the cells five times with ice-cold PBS. After cell centrifugation, cell pellets were resuspended in 400 μL PBS. […] All data acquisition and analyses were performed with CellQuest (BD Biosciences, San Jose, Calif., USA) in triplicate in three independent experiments, and the results were shown as the mean of fluorescence intensity.

Data set [9] deals with RAFLS. Description: Cytosolic calcium level by Fluo-3 flow cytometry in RAFLS. The note with it: 1 μM 0-24 h, 0.1-2 μM 4 h. In kind it is cell-based, human. The procedure: Flow cytometry analysis was performed to determine the cytosolic calcium level. Intracellular free calcium was measured by a fluorescent dye, Fluo-3. Briefly, RAFLS were washed twice with DMEM media after Celastrol treatment (1 μM) for 4 h. Then cell suspensions were incubated with 5 μM Fluo-3 at 37° C. for 30 min. Then the cells were washed twice with HBSS. After re-suspended cell samples were subjected to FACS analysis. At least 10,000 events were analyzed.

Data set [10] deals with P-gp-over-expressing RAFLS. Description: Annexin V flow cytometry, celastrol with methotrexate in RAFLS. In kind it is cell-based, human. The note with it: celastrol 0.1-0.2 μM with 450 μM MTX, 24 h. The method, then:
Celastrol-induced cell death was measured by flow cytometry analysis after annexin V staining.
as §1, with “performed.” for “applied.”, “Briefly, RAFLS are treated with 0-2 μM celastrol for 24 h.” left out

For another data set, the system named is RAFLS p53 WT. Description: MTT cytotoxicity assay, RAFLS Ctrl p53 WT. In kind it is cell-based, human. The method, then: (§4) Cytotoxicity Assays were performed. […] Data were obtained from triplication independent experiments.
The next data set deals with RAFLS p53 N239S. Description: MTT cytotoxicity assay, RAFLS transfected with p53 mutant N239S. In kind it is cell-based, human. The method, then:
as §4

Another data set deals with RAFLS p53 R213*. Description: MTT cytotoxicity assay, RAFLS transfected with p53 mutant R213*. In kind it is cell-based, human. The procedure: as §4
The mark [11] stands for this setting: RAFLS cells overexpressing P-gp.
Where [12] appears, read: Homo sapiens, RA-FLS, 72 h, read-out: mean IC50.
[13] abbreviates: celastrol 1 and 2 mg/kg i.p., 36 days, vs vehicle-treated.

T1 sequence (P08183 whole entry): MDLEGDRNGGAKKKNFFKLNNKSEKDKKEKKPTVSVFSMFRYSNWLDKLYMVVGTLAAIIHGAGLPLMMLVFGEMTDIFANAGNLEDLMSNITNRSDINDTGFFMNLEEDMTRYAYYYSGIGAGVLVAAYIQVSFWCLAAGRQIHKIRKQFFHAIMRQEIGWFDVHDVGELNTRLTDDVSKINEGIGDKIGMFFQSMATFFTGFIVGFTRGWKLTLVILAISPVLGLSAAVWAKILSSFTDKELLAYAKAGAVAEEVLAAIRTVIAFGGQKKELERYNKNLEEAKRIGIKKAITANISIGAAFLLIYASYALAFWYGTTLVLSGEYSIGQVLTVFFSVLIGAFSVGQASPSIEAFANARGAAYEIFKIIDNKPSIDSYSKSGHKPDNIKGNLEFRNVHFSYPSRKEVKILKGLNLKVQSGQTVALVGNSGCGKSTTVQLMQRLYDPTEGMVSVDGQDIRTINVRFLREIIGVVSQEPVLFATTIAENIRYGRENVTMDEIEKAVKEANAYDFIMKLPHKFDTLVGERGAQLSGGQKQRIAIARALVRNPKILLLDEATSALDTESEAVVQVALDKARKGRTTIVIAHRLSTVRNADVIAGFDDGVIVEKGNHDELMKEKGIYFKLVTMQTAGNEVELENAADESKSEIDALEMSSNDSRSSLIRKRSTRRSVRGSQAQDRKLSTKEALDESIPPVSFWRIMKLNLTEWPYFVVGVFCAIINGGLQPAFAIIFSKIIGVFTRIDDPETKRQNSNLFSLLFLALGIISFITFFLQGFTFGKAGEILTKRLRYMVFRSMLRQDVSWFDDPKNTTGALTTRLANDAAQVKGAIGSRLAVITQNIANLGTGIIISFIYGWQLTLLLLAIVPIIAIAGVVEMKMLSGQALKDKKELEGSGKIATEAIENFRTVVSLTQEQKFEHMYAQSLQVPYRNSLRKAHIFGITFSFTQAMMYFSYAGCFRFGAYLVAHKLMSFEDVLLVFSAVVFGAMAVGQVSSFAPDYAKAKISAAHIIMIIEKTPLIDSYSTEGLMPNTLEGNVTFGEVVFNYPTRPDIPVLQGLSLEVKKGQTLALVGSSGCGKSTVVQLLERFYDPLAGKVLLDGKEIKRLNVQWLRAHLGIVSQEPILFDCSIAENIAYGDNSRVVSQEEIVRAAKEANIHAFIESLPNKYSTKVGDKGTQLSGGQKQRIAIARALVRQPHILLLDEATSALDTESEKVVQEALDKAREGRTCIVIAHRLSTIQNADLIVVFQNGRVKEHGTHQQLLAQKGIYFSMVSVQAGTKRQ
Description for in vitro: as §5

Take `CN(Cc1cnc2nc(N)nc(N)c2n1)c1ccc(C(=O)N[C@@H](CCC(=O)O)C(=O)O)cc1` [Methotrexate, methotrexate]: half-maximal inhibition in [1] (RAFLS cells) (IC50 at 72 h) was put at 219 µM. The IC50 at 72 h in the data set “in vitro” (setting [11]) is 838 µM. In [2], the “erythrocyte sedimentation rate (ESR)” value was “down-regulated”; the “microCT of hind joints: swollen joints and cartilage destruction” value is “markedly improved”. The “Resistant Factor” value in data set [3] worked out at 3.83.
Regarding `CC(=O)OCOC(=O)CN(CC(=O)OCOC(C)=O)c1ccccc1OCCOc1ccccc1N(CC(=O)OCOC(C)=O)CC(=O)OCOC(C)=O` [BAPTA/AM, reference compound], the “LC3-II conversion with co-treatment” value in the data set on RASFs [4] is reported as “inhibited LC3-II conversion”. The “celastrol-mediated autophagic cell death with inhibitor” value in the data set on RAFLS [5] is “completely abolished”. Besides, the “celastrol-induced endogenous LC3-II puncta formation with co-treatment” value with RAFLS [6] (1 μM celastrol, 10 μM BAPTA/AM) is given as “dramatically suppressed”. Besides, in [2] (celastrol 1 mg/kg + BAPTA/AM 3.5 mg/kg), the “anti-arthritic effect of celastrol with calcium chelator” value is listed as “retarded the anti-arthritic effect of celastrol”.
Regarding `Cn1cnc(N)c2ncnc1-2` [3-MA, 3-methyladenine], in the data set on RAFLS [5], the “celastrol-mediated autophagic cell death with inhibitor” value is “completely abolished”.
As for `C[C@@H]1C[C@H]2[C@@H]3CCC4=CC(=O)C=C[C@]4(C)[C@@]3(F)[C@@H](O)C[C@]2(C)[C@@]1(O)C(=O)CO` [Dexamethasone, dexamethasone], the results for the IC50 at 72 h (in data set [1] (RAFLS cells); in “in vitro” (setting [11])) were 600 µM and greater than 2000 µM, respectively.
Take `C/C=C(/C)C(=O)O[C@H]1C(C)=C2[C@H]([C@@H]1OC(=O)CCCCCCC)[C@@](C)(OC(C)=O)C[C@H](OC(=O)CCC)[C@@]1(O)[C@H]2OC(=O)[C@@]1(C)O` [thapsigargin]: in the data set with RASFs [7], the “celastrol-induced calcium dynamic change under co-/pre-treatment” value is listed as “extremely low response in calcium mobilization upon celastrol treatment” and the calcium dynamic change entry is on record as “significantly induced the calcium dynamic change”.
With `COc1cc2c(c(OC)c1OC)-c1ccc(OC)c(=O)cc1[C@@H](NC(C)=O)CC2` [Colchicine, colchicine], the IC50 at 72 h came to 11.3 µM in data set [1] and 46 µM in the data set “in vitro”. Further, the “Resistant Factor” value in [3] is on record as 4.07.
As to `CC1=C(O)C(=O)C=C2C1=CC=C1[C@@]2(C)CC[C@@]2(C)[C@@H]3C[C@](C)(C(=O)O)CC[C@]3(C)CC[C@]12C` [Celastrol, celastrol], the “autophagy induction, endogenous LC3-II puncta” value was “induced autophagy in time-dependent manner” with RASFs [8] and “dose-dependent autophagy induction” with RAFLS [6] (0.25-2 μM). The calcium dynamic change result in the data set with RASFs [7] is “stimulated relative weak calcium dynamic”. In addition, the “verapamil-activated P-gp activity” value on P-gp ATPase is “directly suppresses the activated form of P-gp in dose-dependently manner”. Further, the “Rho123 accumulation in P-gp overexpressing RAFLS” value with P-gp is listed as “gradually increased Rho123 accumulation in a dose-dependent manner”. Also, in the data set with RAFLS [9], the “calcium mobilization (Fluo-3)” value is “time and dose-dependently disturbs calcium homeostasis”. Further, the half-maximal inhibitory concentration (IC50) at 72 h amounted to 1.3 µM in data set [1] and 1.45 µM in the data set “in vitro”. Besides, the “cell death (cytotoxicity), annexin V” value in the data set on RAFLS [5] (0.25-2 μM) was “dose-dependent cytotoxicity”. For the same compound, the “MTX-mediated cell death (sensitization)” value in [10] is reported as “potentiating the toxicity of MTX”. For the same compound, the IC50 came out at 0.996 µM in the data set on RAFLS p53 WT (setting [12]), 1.01 µM with RAFLS p53 N239S (setting [12]) and 0.722 µM in the data set on RAFLS p53 R213* (setting [12]). For the same compound, the entries for the “Resistant factor, RF” value with RAFLS p53 WT (RAFLS Ctrl p53 WT (reference)), in the data set on RAFLS p53 N239S (RAFLS p53 N239S vs p53 WT) and in the data set with RAFLS p53 R213* (RAFLS p53 R213* vs p53 WT) were “RF: 1”, “RF: 1.01” and “RF: 0.72”, respectively. For the same compound, the “erythrocyte sedimentation rate (ESR)” value in data set [2] is listed as “down-regulated”. Moreover, the “body weight or organ weight” value in data set [2] (36 days) is reported as “without impairment”. In addition, in data set [2] (setting [13]), the arthritic scores result is given as “significantly reduced”. In addition, in data set [2] (setting [13]), the hind paw volume result is given as “significantly reduced”. Moreover, the “microCT of hind joints: swollen joints and cartilage destruction” value in data set [2] is listed as “markedly improved”. For the same compound, the “Resistant Factor” value in [3] was found to be 1.12.
For `c1cc(-c2cnn3cc(-c4ccc(OCCN5CCCCC5)cc4)cnc23)ccn1` [AMPK inhibitor], the “celastrol-induced calcium dynamic change under co-/pre-treatment” value with RASFs [7] is listed as “no inhibitory effect”.
For `C[C@]12C=CC(=O)C=C1CC[C@@H]1[C@@H]2[C@@H](O)C[C@@]2(C)[C@H]1CC[C@]2(O)C(=O)CO` [Prednisolone, prednisolone], the IC50 at 72 h in [1] (RAFLS cells) came to 123 µM; in the data set “in vitro” (setting [11]) it was 216 µM.

A word on the IC50: it is the concentration that gives 50% inhibition.

The values above are taken from patent US10688105B2, “Method of treating refractory rheumatoid arthritis associated with p53 mutation” (priority 2017, dated 2020).
